According to patent US10058495B2, “Method of making a skin care product” (The Procter & Gamble Company, priority 2014, dated 2018):
Residues, ends and D or L forms follow the SMILES beside them. *: point of attachment. Palmitoyl = CCCCCCCCCCCCCCCC(=O)*

Test: In vivo skin penetration study #1 (Tape Stripping method), magnetic array vs finger
Design: species or system human
Conditions: for combined amount of Pal-KTTKS on tape strips, Mean: mean of the three strip groups; for combined amount of Pal-KTTKS on tape strips, Mean / combined amount of Pal-KTTKS on tape strips: in ng; for delivery of Pal-KTTKS, active compared to passive application: three test subjects
Experimental: An in vivo skin penetration study was conducted to establish the effect of using a skin care product of the present invention by applying a skin care composition comprising Pal-KTTKS (SEQ ID NO: 1) with an applicator comprising a magnetic array. The study compared the penetration of the Pal-KTTKS (SEQ ID NO: 1) in combination with a variety of magnetic arrays (active application) to the penetration of Pal-KTTKS (SEQ ID NO: 1) applied with a finger (passive application). Penetration of Pal-KTTKS (SEQ ID NO: 1) in this example is determined according to the Tape Stripping method. In this example, the level of Pal-KTTKS (SEQ ID NO: 1) present in the extract from each tape strip was measured using HPLC and the results normalized to the protein level measured on the tape strip.
This method provides a suitable means of measuring the amount of skin care active present in skin, and comparing active versus passive application of the skin care active. Two identical rectangular areas of 15 cm^2 are marked on the volar forearms of volunteers. A measured dose (approximately 30 mg) of the Pal-KTTKS (SEQ ID NO: 1) formulation is applied to the delineated areas using a screw actuated syringe. Active application is carried out on one of the delineated areas using the three-quarter profile of a purpose made applicator (e.g., an applicator presenting one of the magnetic arrays set forth in Table 2). Passive application is accomplished on the other delineated area using the tip of a finger in a sweeping motion identical to that of the active application. The formulation is spread evenly across the entire delineated region using a sweeping motion with a fixed speed of approximately 23 cm/s to […]. The application period is 30 seconds during which time visual inspection is used to ensure even distribution and absorption of the formulation by skin. The application area is then left uncovered for a further 30 minutes to ensure complete absorption. Tape strip samples may be collected and/or analyzed immediately after the complete absorption is ensured or after a waiting period (e.g., after multiple applications of the formulation over multiple hours or days).
The tape stripping procedure is carried out using 10 commercial pre-cut 22.1 mm tape stripping adhesive discs (e.g., D-SQUAME, available from Cuderm Corporation or equivalent) with an adhesive area of 3.8 cm^2. The 10 tape strips are applied sequentially to the same sampling site, which ideally enables each tape strip to obtain a sample from deeper within the stratum corneum than the tape strip that preceded it. A 22.1 mm diameter circular region is marked at the center of the application area. A tape stripping adhesive disc is placed over the marked area and even pressure applied using, for example, a neoprene roller, rolled ten times over the adhesive disc. The adhesive disc is removed from the skin surface in a single pulling motion using manual tweezers. To ensure even removal of the skin sample, subsequent discs are removed in a “north, south, east and west” orientation, which is within the skill of the ordinary artisan. Each adhesive disc is non-destructively analysed for protein content using a suitable instrument (e.g., SquameScan™ 850 instrument commercially available from Heiland Electronics Wetzlar, Germany, or equivalent). The adhesive disc is then immediately placed into a glass vial containing extraction solvent in preparation for subsequent analysis. Solvent extractions are conducted on each tape strip using conventional extraction methods, which are well known to those of ordinary skill in the art, and measuring the amount of Pal-KTTKS (SEQ ID NO: 1) present in the extract, for example, by high performance liquid chromatography (“HPLC”) and/or mass spectrometry.
The procedure is repeated for the remaining nine strips. An additional strip is obtained from outside the area of application of the skin care formulation to serve as a blank sample. […]

SMILES: CCCCCCCCCCCCCCCC(=O)N[C@@H](CCCCN)C(=O)N[C@H](C(=O)N[C@H](C(=O)N[C@@H](CCCCN)C(=O)N[C@@H](CO)C(=O)O)[C@@H](C)O)[C@@H](C)O [Pal-KTTKS, palmitoyl-lysine-threonine-threonine-lysine-serine] (Palmitoyl-KTTKS-OH; C-terminus assumed)
- combined amount of Pal-KTTKS on tape strips, Mean (array 4, active, Average): 102.11
- combined amount of Pal-KTTKS on tape strips, Mean (array 4, active, subject 1, 1st test): 144.79
- combined amount of Pal-KTTKS on tape strips, Mean (array 4, active, subject 1, 2nd test): 96.97
- combined amount of Pal-KTTKS on tape strips, Mean (array 4, active, subject 2, 1st test): 122.02
- combined amount of Pal-KTTKS on tape strips, Mean (array 4, active, subject 2, 2nd test): 78.21
- combined amount of Pal-KTTKS on tape strips, Mean (array 4, active, subject 3 (2nd test of Table 7)): 68.57
- combined amount of Pal-KTTKS on tape strips (array 4, active, strips 2-4, Average): 108.81
- combined amount of Pal-KTTKS on tape strips (array 4, active, strips 2-4, subject 1, 1st test): 158.48
- combined amount of Pal-KTTKS on tape strips (array 4, active, strips 2-4, subject 1, 2nd test): 82.45
- combined amount of Pal-KTTKS on tape strips (array 4, active, strips 2-4, subject 2, 1st test): 129.33
- combined amount of Pal-KTTKS on tape strips (array 4, active, strips 2-4, subject 2, 2nd test): 94.10
- combined amount of Pal-KTTKS on tape strips (array 4, active, strips 2-4, subject 3 (2nd test of Table 7)): 79.66
- combined amount of Pal-KTTKS on tape strips (array 4, active, strips 5-7, Average): 107.95
- combined amount of Pal-KTTKS on tape strips (array 4, active, strips 5-7, subject 1, 1st test): 154.85
- combined amount of Pal-KTTKS on tape strips (array 4, active, strips 5-7, subject 1, 2nd test): 117.42
- combined amount of Pal-KTTKS on tape strips (array 4, active, strips 5-7, subject 2, 1st test): 121.51
- combined amount of Pal-KTTKS on tape strips (array 4, active, strips 5-7, subject 2, 2nd test): 73.41
- combined amount of Pal-KTTKS on tape strips (array 4, active, strips 5-7, subject 3 (2nd test of Table 7)): 72.59
- combined amount of Pal-KTTKS on tape strips (array 4, active, strips 8-10, Average): 89.57
- combined amount of Pal-KTTKS on tape strips (array 4, active, strips 8-10, subject 1, 1st test): 121.04
- combined amount of Pal-KTTKS on tape strips (array 4, active, strips 8-10, subject 1, 2nd test): 91.03
- combined amount of Pal-KTTKS on tape strips (array 4, active, strips 8-10, subject 2, 1st test): 115.22
- combined amount of Pal-KTTKS on tape strips (array 4, active, strips 8-10, subject 2, 2nd test): 67.12
- combined amount of Pal-KTTKS on tape strips (array 4, active, strips 8-10, subject 3 (2nd test of Table 7)): 53.45
- combined amount of Pal-KTTKS on tape strips, Mean (array 9, active, average of subjects): 165.57
- combined amount of Pal-KTTKS on tape strips, Mean (array 9, active, subject 1): 154.29
- combined amount of Pal-KTTKS on tape strips, Mean (array 9, active, subject 2): 201.48
- combined amount of Pal-KTTKS on tape strips, Mean (array 9, active, subject 3): 140.93
- combined amount of Pal-KTTKS on tape strips (array 9, active, strips 2-4, average of subjects): 263.02
- combined amount of Pal-KTTKS on tape strips (array 9, active, strips 2-4, subject 1): 177.13
- combined amount of Pal-KTTKS on tape strips (array 9, active, strips 2-4, subject 2): 440.14
- combined amount of Pal-KTTKS on tape strips (array 9, active, strips 2-4, subject 3): 171.79
- combined amount of Pal-KTTKS on tape strips (array 9, active, strips 5-7, average of subjects): 120.01
- combined amount of Pal-KTTKS on tape strips (array 9, active, strips 5-7, subject 1): 131.72
- combined amount of Pal-KTTKS on tape strips (array 9, active, strips 5-7, subject 2): 100.02
- combined amount of Pal-KTTKS on tape strips (array 9, active, strips 5-7, subject 3): 128.29
- combined amount of Pal-KTTKS on tape strips (array 9, active, strips 8-10, average of subjects): 113.67
- combined amount of Pal-KTTKS on tape strips (array 9, active, strips 8-10, subject 1): 154.03
- combined amount of Pal-KTTKS on tape strips (array 9, active, strips 8-10, subject 2): 64.27
- combined amount of Pal-KTTKS on tape strips (array 9, active, strips 8-10, subject 3): 122.70
- delivery of Pal-KTTKS, active compared to passive application (bi-directional magnetic array #9): significant enhanced delivery
- combined amount of Pal-KTTKS on tape strips, Mean (passive, comparator of array 4, Average): 50.00
- combined amount of Pal-KTTKS on tape strips, Mean (passive, comparator of array 4, subject 1, 1st test): 59.18
- combined amount of Pal-KTTKS on tape strips, Mean (passive, comparator of array 4, subject 1, 2nd test): 42.29
- combined amount of Pal-KTTKS on tape strips, Mean (passive, comparator of array 4, subject 2, 1st test): 52.85
- combined amount of Pal-KTTKS on tape strips, Mean (passive, comparator of array 4, subject 2, 2nd test): 23.30
- combined amount of Pal-KTTKS on tape strips, Mean (passive, comparator of array 4, subject 3 (2nd test of Table 8)): 72.39
- combined amount of Pal-KTTKS on tape strips (passive, comparator of array 4, strips 2-4, Average): 70.42
- combined amount of Pal-KTTKS on tape strips (passive, comparator of array 4, strips 2-4, subject 1, 1st test): 79.94
- combined amount of Pal-KTTKS on tape strips (passive, comparator of array 4, strips 2-4, subject 1, 2nd test): 69.89
- combined amount of Pal-KTTKS on tape strips (passive, comparator of array 4, strips 2-4, subject 2, 1st test): 86.09
- combined amount of Pal-KTTKS on tape strips (passive, comparator of array 4, strips 2-4, subject 2, 2nd test): 28.02
- combined amount of Pal-KTTKS on tape strips (passive, comparator of array 4, strips 2-4, subject 3 (2nd test of Table 8)): 88.18
- combined amount of Pal-KTTKS on tape strips (passive, comparator of array 4, strips 5-7, Average): 49.50
- combined amount of Pal-KTTKS on tape strips (passive, comparator of array 4, strips 5-7, subject 1, 1st test): 65.58
- combined amount of Pal-KTTKS on tape strips (passive, comparator of array 4, strips 5-7, subject 1, 2nd test): 35.35
- combined amount of Pal-KTTKS on tape strips (passive, comparator of array 4, strips 5-7, subject 2, 1st test): 46.95
- combined amount of Pal-KTTKS on tape strips (passive, comparator of array 4, strips 5-7, subject 2, 2nd test): 23.11
- combined amount of Pal-KTTKS on tape strips (passive, comparator of array 4, strips 5-7, subject 3 (2nd test of Table 8)): 76.52
- combined amount of Pal-KTTKS on tape strips (passive, comparator of array 4, strips 8-10, Average): 30.08
- combined amount of Pal-KTTKS on tape strips (passive, comparator of array 4, strips 8-10, subject 1, 1st test): 32.01
- combined amount of Pal-KTTKS on tape strips (passive, comparator of array 4, strips 8-10, subject 1, 2nd test): 21.64
- combined amount of Pal-KTTKS on tape strips (passive, comparator of array 4, strips 8-10, subject 2, 1st test): 25.51
- combined amount of Pal-KTTKS on tape strips (passive, comparator of array 4, strips 8-10, subject 2, 2nd test): 18.76
- combined amount of Pal-KTTKS on tape strips (passive, comparator of array 4, strips 8-10, subject 3 (2nd test of Table 8)): 52.45
- combined amount of Pal-KTTKS on tape strips, Mean (passive, comparator of array 9, average of subjects): 47.80
- combined amount of Pal-KTTKS on tape strips, Mean (passive, comparator of array 9, subject 1): 42.29
- combined amount of Pal-KTTKS on tape strips, Mean (passive, comparator of array 9, subject 2): 28.71
- combined amount of Pal-KTTKS on tape strips, Mean (passive, comparator of array 9, subject 3): 72.39
- combined amount of Pal-KTTKS on tape strips (passive, comparator of array 9, strips 2-4, average of subjects): 62.79
- combined amount of Pal-KTTKS on tape strips (passive, comparator of array 9, strips 2-4, subject 1): 69.89
- combined amount of Pal-KTTKS on tape strips (passive, comparator of array 9, strips 2-4, subject 2): 30.29
- combined amount of Pal-KTTKS on tape strips (passive, comparator of array 9, strips 2-4, subject 3): 88.18
- combined amount of Pal-KTTKS on tape strips (passive, comparator of array 9, strips 5-7, average of subjects): 50.50
- combined amount of Pal-KTTKS on tape strips (passive, comparator of array 9, strips 5-7, subject 1): 35.35
- combined amount of Pal-KTTKS on tape strips (passive, comparator of array 9, strips 5-7, subject 2): 39.62
- combined amount of Pal-KTTKS on tape strips (passive, comparator of array 9, strips 5-7, subject 3): 76.52
- combined amount of Pal-KTTKS on tape strips (passive, comparator of array 9, strips 8-10, average of subjects): 30.11
- combined amount of Pal-KTTKS on tape strips (passive, comparator of array 9, strips 8-10, subject 1): 21.64
- combined amount of Pal-KTTKS on tape strips (passive, comparator of array 9, strips 8-10, subject 2): 16.23
- combined amount of Pal-KTTKS on tape strips (passive, comparator of array 9, strips 8-10, subject 3): 52.45
- delivery of Pal-KTTKS, active compared to passive application (uni-directional magnetic array #4): significant enhanced delivery
